Test results published in the NIST ThermoML archive (doi:10.1021/je700260f).
Where “and” joins values, the source holds several entries; their conditions need not be identical. Identical values can stand only once.

Details: 283.15 K, Liquid, Vibrating tube method

FC(C(F)(F)F)C(F)(F)F [1,1,1,2,3,3,3-heptafluoropropane]
Details | mass density
25072 kPa | 1552.4 kg/m3
25508 kPa | 1553.7 kg/m3
25593 kPa | 1553.9 kg/m3
25630 kPa | 1554.1 kg/m3
25722 kPa | 1554.3 kg/m3
25865 kPa | 1554.8 kg/m3
25945 kPa | 1555.1 kg/m3
25993 kPa | 1555.1 kg/m3
26030 kPa | 1555.3 kg/m3
26068 kPa | 1555.4 kg/m3
26113 kPa | 1555.4 kg/m3
26152 kPa | 1555.7 kg/m3
26191 kPa | 1555.8 kg/m3
26249 kPa | 1555.9 kg/m3
26283 kPa | 1556 kg/m3
26327 kPa | 1556.3 kg/m3
26367 kPa | 1556.3 kg/m3
26406 kPa | 1556.2 kg/m3
26446 kPa | 1556.3 kg/m3
26479 kPa | 1556.8 kg/m3
26519 kPa | 1556.7 kg/m3
26559 kPa | 1556.8 kg/m3
26599 kPa | 1557 kg/m3
26650 kPa | 1557.1 kg/m3
26683 kPa | 1557.3 kg/m3
26723 kPa | 1557.3 kg/m3
26757 kPa | 1557.3 kg/m3
26796 kPa | 1557.5 kg/m3
26886 kPa | 1557.8 kg/m3
26921 kPa | 1557.9 kg/m3
26968 kPa | 1558.1 kg/m3
27001 kPa | 1558.1 kg/m3
27029 kPa | 1558.2 kg/m3
27058 kPa | 1558.3 kg/m3
27082 kPa | 1558.3 kg/m3
27131 kPa | 1558.5 kg/m3
27170 kPa | 1558.7 kg/m3
27199 kPa | 1558.8 kg/m3
27228 kPa | 1558.8 kg/m3
27271 kPa | 1558.9 kg/m3
27533 kPa | 1559.8 kg/m3
27563 kPa | 1559.9 kg/m3
27596 kPa | 1559.8 kg/m3
27629 kPa | 1560 kg/m3
27673 kPa | 1560 kg/m3
27710 kPa | 1560.2 kg/m3
27743 kPa | 1560.2 kg/m3
27816 kPa | 1560.5 kg/m3
27850 kPa | 1560.7 kg/m3
27880 kPa | 1560.8 kg/m3
27914 kPa | 1560.8 kg/m3
27940 kPa | 1560.9 kg/m3
27979 kPa | 1561 kg/m3
28024 kPa | 1561.2 kg/m3
28058 kPa | 1561.1 kg/m3
28091 kPa | 1561.4 kg/m3
28124 kPa | 1561.5 kg/m3
28168 kPa | 1561.6 kg/m3
28466 kPa | 1562.5 kg/m3
28514 kPa | 1562.7 kg/m3
28558 kPa | 1562.7 kg/m3
28591 kPa | 1562.8 kg/m3
28620 kPa | 1562.8 kg/m3
28657 kPa | 1562.9 kg/m3
28690 kPa | 1563.1 kg/m3
28727 kPa | 1563.2 kg/m3
28761 kPa | 1563.3 kg/m3
28795 kPa | 1563.4 kg/m3
28837 kPa | 1563.6 kg/m3
28875 kPa | 1563.5 kg/m3
29088 kPa | 1564.2 kg/m3
29357 kPa | 1565 kg/m3
29424 kPa | 1565.2 kg/m3
29452 kPa | 1565.2 kg/m3
29578 kPa | 1565.7 kg/m3
29617 kPa | 1565.6 kg/m3
29646 kPa | 1565.8 kg/m3
29684 kPa | 1565.9 kg/m3
29712 kPa | 1565.9 kg/m3
29745 kPa | 1566.1 kg/m3
29784 kPa | 1566.2 kg/m3
29814 kPa | 1566.3 kg/m3
29853 kPa | 1566.4 kg/m3
29877 kPa | 1566.5 kg/m3
29911 kPa | 1566.5 kg/m3
29944 kPa | 1566.6 kg/m3
29974 kPa | 1566.7 kg/m3
30021 kPa | 1566.8 kg/m3
30050 kPa | 1567 kg/m3
30079 kPa | 1567 kg/m3
30151 kPa | 1567.2 kg/m3
30190 kPa | 1567.4 kg/m3
30219 kPa | 1567.5 kg/m3
30259 kPa | 1567.4 kg/m3
30288 kPa | 1567.5 kg/m3
30323 kPa | 1567.7 kg/m3
30361 kPa | 1567.8 kg/m3
30390 kPa | 1567.7 kg/m3
30425 kPa | 1567.9 kg/m3
30460 kPa | 1567.9 kg/m3
30499 kPa | 1568.2 kg/m3
30529 kPa | 1568.3 kg/m3
30560 kPa | 1568.3 kg/m3
30595 kPa | 1568.5 kg/m3
30635 kPa | 1568.6 kg/m3
30666 kPa | 1568.6 kg/m3
30696 kPa | 1568.7 kg/m3
30743 kPa | 1568.9 kg/m3
30783 kPa | 1569 kg/m3
30830 kPa | 1569.1 kg/m3
30861 kPa | 1569.2 kg/m3
30897 kPa | 1569.2 kg/m3
30937 kPa | 1569.4 kg/m3
30968 kPa | 1569.5 kg/m3
30999 kPa | 1569.5 kg/m3
31030 kPa | 1569.6 kg/m3
31065 kPa | 1569.7 kg/m3
31105 kPa | 1569.9 kg/m3
31140 kPa | 1569.9 kg/m3
31187 kPa | 1570 kg/m3
31230 kPa | 1570.2 kg/m3
31267 kPa | 1570.2 kg/m3
31308 kPa | 1570.4 kg/m3
31350 kPa | 1570.6 kg/m3
31392 kPa | 1570.6 kg/m3
31429 kPa | 1570.7 kg/m3
31511 kPa | 1570.9 kg/m3
31547 kPa | 1571.1 kg/m3
31588 kPa | 1571.2 kg/m3
31620 kPa | 1571.3 kg/m3
31657 kPa | 1571.3 kg/m3
31697 kPa | 1571.5 kg/m3
31750 kPa | 1571.7 kg/m3
31782 kPa | 1571.7 kg/m3
31819 kPa | 1571.7 kg/m3
31855 kPa | 1571.9 kg/m3
31897 kPa | 1572 kg/m3
32027 kPa | 1572.4 kg/m3
32095 kPa | 1572.5 kg/m3
32132 kPa | 1572.7 kg/m3
32164 kPa | 1572.9 kg/m3
32391 kPa | 1573.4 kg/m3
32884 kPa | 1574.5 kg/m3
32921 kPa | 1574.8 kg/m3
32959 kPa | 1574.9 kg/m3
33280 kPa | 1575.7 kg/m3
33348 kPa | 1575.9 kg/m3
33384 kPa | 1576 kg/m3
33426 kPa | 1576 kg/m3
33457 kPa | 1576.2 kg/m3
33499 kPa | 1576.3 kg/m3
33535 kPa | 1576.4 kg/m3
33572 kPa | 1576.5 kg/m3
33609 kPa | 1576.6 kg/m3
33661 kPa | 1576.7 kg/m3
33688 kPa | 1576.8 kg/m3
33731 kPa | 1576.9 kg/m3
33762 kPa | 1576.9 kg/m3
33793 kPa | 1577.1 kg/m3
33830 kPa | 1577.3 kg/m3
33873 kPa | 1577.3 kg/m3
33910 kPa | 1577.4 kg/m3
33948 kPa | 1577.5 kg/m3
33984 kPa | 1577.6 kg/m3
34026 kPa | 1577.7 kg/m3
34068 kPa | 1577.8 kg/m3
34110 kPa | 1577.9 kg/m3
34148 kPa | 1577.9 kg/m3
34186 kPa | 1578.2 kg/m3
34224 kPa | 1578.1 kg/m3
34267 kPa | 1578.2 kg/m3
34310 kPa | 1578.5 kg/m3
34350 kPa | 1578.6 kg/m3
34387 kPa | 1578.6 kg/m3
34414 kPa | 1578.7 kg/m3
34442 kPa | 1578.8 kg/m3
34456 kPa | 1578.8 kg/m3
34470 kPa | 1578.8 kg/m3
34478 kPa | 1578.9 kg/m3
34486 kPa | 1578.9 kg/m3
34492 kPa | 1579.1 kg/m3
34498 kPa | 1579 kg/m3
34504 kPa | 1578.9 kg/m3
34505 kPa | 1578.9 kg/m3
34506 kPa | 1579 kg/m3
34508 kPa | 1579 kg/m3
34509 kPa | 1579 kg/m3
34511 kPa | 1579 kg/m3 and 1579.2 kg/m3
34512 kPa | 1579 kg/m3 and 1579.1 kg/m3
34513 kPa | 1579.1 kg/m3
34514 kPa | 1579.2 kg/m3
34515 kPa | 1579 kg/m3 and 1578.9 kg/m3
34516 kPa | 1579.1 kg/m3
34517 kPa | 1579 kg/m3
34518 kPa | 1579 kg/m3
34519 kPa | 1578.9 kg/m3 and 1579 kg/m3 and 1579.1 kg/m3
34520 kPa | 1578.9 kg/m3 and 1579.1 kg/m3
34521 kPa | 1579 kg/m3 and 1578.9 kg/m3
34522 kPa | 1579 kg/m3
34523 kPa | 1579.1 kg/m3 and 1579 kg/m3
34524 kPa | 1579.1 kg/m3 and 1579 kg/m3
34525 kPa | 1579 kg/m3 and 1578.9 kg/m3
34526 kPa | 1579.1 kg/m3
34527 kPa | 1579 kg/m3
34528 kPa | 1579.1 kg/m3
